Results taken from ChEMBL document CHEMBL1150969, “New alkaloids from the papua new guinean sponge agelas nakamurai” (J Nat Prod, 1998).
In brackets after ≈: the same amount, converted by molar mass. Activity calls are given as the source filed them. The calls are words filed in the database; no cut-off is given here.

Tests used:
[1] = target: Human immunodeficiency virus type 1 integrase (Human immunodeficiency virus 1) (UniProt Q7ZJM1); assay: Inhibition of HIV1 integrase at 10 ug/ml
Pseudomonas aeruginosa = assay: Antimicrobial activity against Pseudomonas aeruginosa upto 12.5 ug/ml; format: functional, organism-based
Escherichia coli = assay: Antimicrobial activity against Escherichia coli upto 12.5 ug/ml; format: functional, organism-based
Candida albicans = assay: Antimicrobial activity against Candida albicans IFO 1269; format: functional, organism-based
Enterococcus faecium = assay: Antimicrobial activity against Enterococcus faecium 12367; format: functional, organism-based
Cryptococcus neoformans = assay: Antimicrobial activity against Cryptococcus neoformans TIMM 0354; format: functional, organism-based
Enterococcus faecalis = assay: Antimicrobial activity against Enterococcus faecalis 12964; format: functional, organism-based
Staphylococcus aureus [2] = assay: Antimicrobial activity against methicillin-resistant Staphylococcus aureus; format: functional, organism-based
Staphylococcus aureus [3] = assay: Antimicrobial activity against Staphylococcus aureus 12732; format: functional, organism-based
[4] = tested on: Staphylococcus epidermidis; assay: Antimicrobial activity against Staphylococcus epidermidis 13889; format: functional, organism-based

Human immunodeficiency virus type 1 integrase (Human immunodeficiency virus 1), sequence (Q7ZJM1 as listed by the source): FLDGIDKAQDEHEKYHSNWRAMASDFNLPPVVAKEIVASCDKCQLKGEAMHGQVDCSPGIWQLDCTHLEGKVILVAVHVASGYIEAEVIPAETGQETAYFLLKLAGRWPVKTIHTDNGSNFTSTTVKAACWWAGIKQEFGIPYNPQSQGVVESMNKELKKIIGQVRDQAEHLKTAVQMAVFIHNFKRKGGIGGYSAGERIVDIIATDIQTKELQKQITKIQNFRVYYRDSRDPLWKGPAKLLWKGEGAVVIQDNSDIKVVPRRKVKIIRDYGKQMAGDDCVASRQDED

## COCNC(=O)c1ccc(Br)[nH]1
[1]
  Activity: inactive
Pseudomonas aeruginosa
  Activity: inactive
Escherichia coli
  Activity: inactive

## CC1=CCC[C@@H]2[C@@](C)(CC/C(C)=C/Cn3c[n+](C)c4ncnc(N)c43)[C@H](C)CC[C@@]12C.[Cl-] [AGELASINE B]
Candida albicans
  IC50: > 12.5 µg/mL
Enterococcus faecium
  IC50: 3.13 µg/mL
Cryptococcus neoformans
  IC50: 3.13 µg/mL
Enterococcus faecalis
  IC50: 6.25 µg/mL
Staphylococcus aureus [2]
  IC50: 3.13 µg/mL
Staphylococcus aureus [3]
  IC50: 0.78 µg/mL
[4]
  IC50: 1.56 µg/mL

## C=C1CC[C@]2(C)[C@@H](C)CCC[C@]2(C)[C@H]1CC/C(C)=C/Cn1c[n+](C)c2ncnc(N)c21
[1]
  Activity: inactive
Pseudomonas aeruginosa
  Activity: inactive
Escherichia coli
  Activity: inactive

## NC(=O)c1ccc(Br)[nH]1
[1]
  Activity: inactive
Candida albicans
  IC50: 6.25 µg/mL (≈ 33.1 µM)
Enterococcus faecium
  IC50: 3.13 µg/mL (≈ 16.6 µM)
Cryptococcus neoformans
  IC50: 3.13 µg/mL (≈ 16.6 µM)
Pseudomonas aeruginosa
  Activity: inactive
Enterococcus faecalis
  IC50: 6.25 µg/mL (≈ 33.1 µM)
Staphylococcus aureus [2]
  IC50: 3.13 µg/mL (≈ 16.6 µM)
Staphylococcus aureus [3]
  IC50: 0.78 µg/mL (≈ 4.13 µM)
Escherichia coli
  Activity: inactive
[4]
  IC50: 3.13 µg/mL (≈ 16.6 µM)
